Measurements from PMC12491243, “Rational design of indoleamine 2,3-dioxygenase 1 (IDO1) inhibitors featuring 1,2,3-triazole derivatives with enhanced anti-inflammatory and analgesic efficacy” (Frontiers in Pharmacology, 2025).
Where two headings read alike, the source gives them in different places. Blank lines part the entries; values can stand above or below the compound they belong to.

Assays:
kynurenine production = tested on: kynurenine production; parameters: method as in Wang et al., 2019; conditions: treated cells, low concentrations; ref Wang et al., 2019; cited from earlier work
[1] = 2019, cited from earlier work
IDO1 [2] = conditions: cited from earlier work
IDO1 [3] = biological target: T1, IDO1 (Homo sapiens, UniProt P14902); experiment: HeLa cell-based IDO1 inhibition assay; conditions: HeLa cells, 100 ng/mL human IFN-γ, 18 h, kynurenine absorbance at 480 nm
T1 construct: endogenous in cells; host or cells: HeLa cells stimulated with 100 ng/mL human IFN-γ
T1 sequence (P14902 whole entry): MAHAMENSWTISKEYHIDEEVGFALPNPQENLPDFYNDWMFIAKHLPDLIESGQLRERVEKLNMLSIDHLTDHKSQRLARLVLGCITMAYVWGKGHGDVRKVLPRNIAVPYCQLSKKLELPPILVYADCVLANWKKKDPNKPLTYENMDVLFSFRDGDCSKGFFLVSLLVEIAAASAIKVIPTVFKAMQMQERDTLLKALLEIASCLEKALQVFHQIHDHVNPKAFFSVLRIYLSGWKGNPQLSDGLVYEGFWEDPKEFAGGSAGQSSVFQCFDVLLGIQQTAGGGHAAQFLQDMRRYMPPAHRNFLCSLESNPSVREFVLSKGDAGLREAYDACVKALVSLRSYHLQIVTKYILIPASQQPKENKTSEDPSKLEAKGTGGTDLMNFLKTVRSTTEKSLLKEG
Protocol: To evaluate the IDO1 inhibitory activity of the newly synthesized derivatives, HeLa cells with high IDO1 expression were used as the experimental model. […] To perform the HeLa cell-based IDO1 inhibition assay, HeLa cells were seeded at a density of 50,000 cells per well in a 96-well microplate containing 100 μL of DMEM supplemented with 10% fetal bovine serum and 1% penicillin-streptomycin. The cells were incubated overnight at 37 °C in a humidified atmosphere with 5% CO2. The following day, 100 μL of growth medium containing diluted inhibitors and 100 ng/mL human IFN-γ was added to each well. The cells were then incubated at 37 °C in a CO2 incubator for 18 h. […] The plate was incubated at 50 °C for 30 min and then centrifuged at 2,500 rpm for 10 min to remove any sediment. Next, 100 μL of the supernatant was transferred to a separate 96-well plate and mixed with 100 μL of 2% (w/v) 4-(dimethylamino)benzaldehyde in acetic acid. After a 10-min incubation at room temperature, the absorbance of the resulting yellow color, indicative of kynurenine, was measured at 480 nm using a microplate reader.

IDO1 [4] = conditions: read-out: IC50 in enzymatic assays, cited from earlier work
IDO1 [5] = tested on: IDO1; parameters: method as in Alexandre et al., 2018; conditions: ref Alexandre et al., 2018; read-out: IC50 in cellular assays; cited from earlier work
[6] = tested on: hepatocellular carcinoma (Hepa1-6); parameters: method as in Pan et al., 2020; conditions: hepatocellular carcinoma (Hepa1-6) model; ref Pan et al., 2020; cited from earlier work
[7] = tested on: Lewis lung carcinoma (LL2); parameters: method as in Pan et al., 2020; conditions: ref Pan et al., 2020, cited from earlier work
mouse IDO1 = tested on: mouse IDO1; parameters: method as in Rohrig et al., 2012; Rohrig et al., 2019; conditions: ref Rohrig et al., 2012, 2019, read-out: IC50 in cellular assays, mouse IDO1; cited from earlier work
TDO = tested on: TDO; parameters: method as in Rohrig et al., 2012; Rohrig et al., 2019; conditions: ref Rohrig et al., 2012, 2019; cited from earlier work
human IDO1 = tested on: human IDO1; parameters: method as in Rohrig et al., 2012; Rohrig et al., 2019; conditions: ref Rohrig et al., 2012, 2019, read-out: IC50 in cellular assays, human IDO1; cited from earlier work
5-HT reuptake = tested on: 5-HT reuptake; parameters: method as in earlier work; conditions: ref Crosignani et al., 2017; González-Gutiérrez et al., 2025; Mendez-Rojas et al., 2018; cited from earlier work
dopamine D2 receptor = tested on: dopamine D2 receptor; parameters: method as in earlier work; conditions: ref Crosignani et al., 2017; González-Gutiérrez et al., 2025; Mendez-Rojas et al., 2018; cited from earlier work
IDO1 in MDA-MB-231 cells = tested on: IDO1 in MDA-MB-231 cells; parameters: method as in Panda et al., 2019; conditions: ref Panda et al., 2019; cited from earlier work

SMILES: COc1cccc2c1C(=O)C1=C(C[C@H](Cn3cc(-c4ccccc4)nn3)O[C@@H]1C)C2=O [Compound 5]
reduction of kynurenine production (kynurenine production): over 60%
cytotoxicity ([1]; ref Wang et al.): minimal cytotoxicity
IC50 (IDO1 [2]; ref Wang et al., 2019, read-out: potency against IDO1, IC50): 6 µM

SMILES: Clc1ccc(Nc2c[nH]nn2)cc1 [Compound 4]
IC50 (IDO1 [4]; ref Alexandre et al., 2018): 11.3 µM
IC50 (IDO1 [5]): 0.023 µM

SMILES: O=C1c2cc(F)ccc2C(=O)c2c1nnn2-c1ccc(F)c(Cl)c1 [Compound 2]
anti-tumor activity in vivo [6]: significant anti-tumor activity
toxicity in vivo models ([7]; LL2 and Hepa1-6 in vivo models): minimal toxicity
anti-tumor activity in vivo ([7]; Lewis lung carcinoma (LL2) model): significant anti-tumor activity
IC50 (IDO1 [2]; ref Pan et al., 2020, read-out: IDO1 inhibition IC50): 0.005 µM

SMILES: Oc1ccc(Cl)cc1-c1c[nH]nn1 [Compound 3]
IC50 (mouse IDO1): 0.002 µM
IC50 (IDO1 [4]; ref Rohrig et al., 2012, Rohrig et al., 2019): 0.33 µM
activity against TDO (TDO): no activity
cytotoxicity ([1]; cellular assays, ref Rohrig et al., 2012, Rohrig et al.): minimal cytotoxicity
IC50 (human IDO1): 0.08 µM

SMILES: CC(CCN1CCN(c2cccc3c2OCC(=O)N3)CC1)c1c[nH]c2ccc(F)cc12 (stereo not drawn) [Compound 11]
activity in inhibiting 5-HT reuptake (5-HT reuptake): high activity
dopamine D2 receptor inhibition (dopamine D2 receptor): potent

SMILES: NS(=O)(=O)NCCNC(=O)c1n[nH]nc1-c1ccc(F)c(F)c1 [Compound 6]
IDO1 inhibition in MDA-MB-231 cells (IDO1 in MDA-MB-231 cells): strong IDO1 inhibition
cytotoxicity ([1]; ref Panda et al.): negligible cytotoxicity

Other lines, results leading:

IC50 (IDO1 [3]): 11.2 µM
SMILES: O=C1COc2ccc(NC(=O)c3cccc(-c4cn(Cc5ccc(Br)cc5)nn4)c3)cc2N1 [Compound 14a]

IC50 (IDO1 [3]): > 30 µM
SMILES: Cc1cc(C)cc(Cn2cc(-c3cccc(C(=O)Nc4ccc5c(c4)NC(=O)CO5)c3)nn2)c1 [Compound 14b]

IC50 (IDO1 [3]): > 30 µM
SMILES: O=C1COc2ccc(NC(=O)c3cccc(-c4cn(Cc5ccccc5F)nn4)c3)cc2N1 [Compound 14j]

IC50 (IDO1 [3]): 10.1 µM
SMILES: O=C1COc2ccc(NC(=O)c3cccc(-c4cn(Cc5cccc(Cl)c5)nn4)c3)cc2N1 [Compound 14g]

IC50 (IDO1 [3]): 9.98 µM
SMILES: O=C1COc2ccc(NC(=O)c3cccc(-c4cn(Cc5cc(Cl)ccc5F)nn4)c3)cc2N1 [Compound 14h]

IC50 (IDO1 [3]): > 30 µM
SMILES: O=C1COc2ccc(NC(=O)c3cccc(-c4cn(Cc5cc(F)c(F)c(F)c5)nn4)c3)cc2N1 [Compound 14c]

IC50 (IDO1 [3]): > 30 µM
SMILES: O=C1COc2ccc(NC(=O)c3cccc(-c4cn(Cc5ccc(F)cc5)nn4)c3)cc2N1 [Compound 14i]

IC50 (IDO1 [3]): 8.02 µM
SMILES: O=C1COc2ccc(NC(=O)c3cccc(-c4cn(Cc5ccc(F)c(Cl)c5)nn4)c3)cc2N1 [Compound 14f]

IC50 (IDO1 [3]): > 30 µM
SMILES: N#Cc1ccc(F)cc1Cn1cc(-c2cccc(C(=O)Nc3ccc4c(c3)NC(=O)CO4)c2)nn1 [Compound 14d]
